Test results taken from patent publication US4382935A, “Analgesic drug containing a derivative of benzylpiperazine” (Buzas; Andre, priority 1980, dated 1983).
Values joined by “and” are separate entries in the source; they are usually repeats but may differ in a detail not shown here. Equal entries are not always repeated.

Experiments:
[1] = target: morphine-compound cerebral receptors; test: Fixation on morphine-compound cerebral receptors (displacement of tritiated etorphin); assay type: binding; details: rat-brain homogenate, 1 mg/ml protein, 30 minutes at 35° C; read-out: CI50 (displacement of tritiated etorphin)
Method: It is sought to determine the affinity of the products under study by means of their capacity for displacement of tritiated etorphin in a rat-brain homogenate (containing 1 mg/ml of protein) over a period of 30 minutes at 35° C. This test consists in determining the value CI50 corresponding to the concentration of products which are capable of inhibiting 50% of the specific radioactive ligand bond.

[2] = test system: mice; test: Siegmund test with phenylbenzoquinone in mice; assay type: in vivo; details: Mus musculus, po, 1 h, peroral, one hour before phenylbenzoquinone i.p., read-out: DE50 (50% reduction in the number of contortions)
Method: This test has been performed in accordance with the method described by Siegmund, Cadmus and Lu ("A method for evaluating both non-narcotic and narcotic analgesics", Proc. Soc. Exp. Biol. Med., 1957, 95, 729-731).
(§1) One hour after peroral administration of the product under study to batches of twelve mice per dose, phenylbenzoquinone in solution in a proportion of 0.02% in water containing 5% ethyl alcohol is administered by intraperitoneal injection in a proportion of 0.25 ml per mouse of 20 g.
The dose DE50 (which produces a 50% reduction in the number of contortions with respect to the reference animals) is calculated on the basis of the dose/effect relation.

[3] = test system: rat fundus; test: Antagonism produced by harmine on rat fundus; assay type: cell-based; details: product as agonist, harmine as antagonist
Method: (§2) These interactions are sought on isolated organs which are maintained in a state of survival in a nutrient liquid. The contractions of these organs are recorded on a kymograph by means of an isotonic mechanism.
(§3) An agonist is added to the nutrient liquid bath, either alone or after addition of an antagonist, to increasing concentrations which serve to plot cumulative dose-response curves.
The organ studied in this case is the rat fundus the nutrient liquid is the Kreps liquid, the agonist corresponds to the product under study and the antagonist is harmine.

[4] = target: T1, rat fundus (Rattus norvegicus, UniProt P30994); test: Antagonism with respect to serotonin on isolated organ; assay type: cell-based; details: for nature of antagonism with respect to serotonin: rat fundus, agonist serotonin
T1 construct: The organ under study is the rat fundus; from tissue; host or cells: isolated rat fundus
Method: as §2, §3
The organ under study is the rat fundus, the nutrient liquid employed is Kreps liquid, the agonist is serotonin and the antagonist is the product under study.

[5] = test system: mice; test: Antagonism produced by Naloxone in the Siegmund test; assay type: in vivo
Method: as §1
The dose DE50 (which produces a 50% reduction in the number of contortions with respect to the reference animals) is calculated on the basis of the dose/effect relation. The following results are thus obtained:
This antagonism is sought in the Siegmund test performed on mice with phenylbenzoquinone as described earlier. Naloxone is administered by subcutaneous injection at a fixed dose at the same time as the product under study.

[6] = Acute toxicity in mice (DL50), peroral; details: mouse, in vivo, po, mortality over 48 hours
Method: The acute toxicity is evaluated according to the mortality observed during a period of 48 hours on batches of four mice which have received perorally 100, 200, 400, 800 and 1600 mg/kg of the compound under study.

[7] = target: T2, guinea-pig ileum (Cavia porcellus, UniProt P31389); test: Antagonism with respect to histamine on isolated organ; assay type: cell-based; details: agonist histamine
T2 construct: the organ on which this action has been studied is the guinea-pig ileum; from tissue; host or cells: isolated guinea-pig ileum
Method: as §2, §3
In this test, the organ on which this action has been studied is the guinea-pig ileum. The nutrient liquid employed is Tyorode, the agonist is histamine and the antagonist is the product under study.

[8] = test system: mice; test: Heating-plate test performed on mice (Eddy test); assay type: in vivo; details: peroral, one hour before test, plate at 56.5° C; for ED30: Mus musculus, po, 1 h, read-out: DE30 (30% increase in licking time)
Method: This test has been carried out in accordance with the method described by N. B. Eddy (J. Pharmacol: 1932, 45, 339-359).
One hour after the product under study has been administered perorally to batches of twelve mice per dose, the time taken by the mice to lick their front paws is measured, the mice having been placed on a plate heated to a temperature of 56.5° C.
The dose DE30 (which produces a 30% increase in licking time with respect to the reference animals) is calculated on the basis of the dose/effect relation.

[9] = test system: rat fundus; test: Agonism on the rat fundus; assay type: cell-based; details: product under study as agonist
Method: as §2, §3
The organ under study is the rat fundus, the nutrient liquid is the Kreps liquid and the agonist is the product under study.

T2 sequence (P31389 whole entry): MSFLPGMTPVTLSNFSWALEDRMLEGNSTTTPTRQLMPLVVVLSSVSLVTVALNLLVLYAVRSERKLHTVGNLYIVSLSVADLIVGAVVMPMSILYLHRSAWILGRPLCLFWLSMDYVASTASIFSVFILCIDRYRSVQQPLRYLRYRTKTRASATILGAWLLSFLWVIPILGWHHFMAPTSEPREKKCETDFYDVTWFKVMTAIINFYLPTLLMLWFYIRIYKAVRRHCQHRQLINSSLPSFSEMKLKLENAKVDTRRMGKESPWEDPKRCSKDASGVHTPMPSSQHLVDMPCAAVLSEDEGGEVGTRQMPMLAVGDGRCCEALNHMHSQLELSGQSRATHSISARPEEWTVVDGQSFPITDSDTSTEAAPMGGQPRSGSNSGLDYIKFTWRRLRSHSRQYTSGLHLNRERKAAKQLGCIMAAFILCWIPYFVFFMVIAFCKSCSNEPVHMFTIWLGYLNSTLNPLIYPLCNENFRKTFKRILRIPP
T1 sequence (P30994 whole entry): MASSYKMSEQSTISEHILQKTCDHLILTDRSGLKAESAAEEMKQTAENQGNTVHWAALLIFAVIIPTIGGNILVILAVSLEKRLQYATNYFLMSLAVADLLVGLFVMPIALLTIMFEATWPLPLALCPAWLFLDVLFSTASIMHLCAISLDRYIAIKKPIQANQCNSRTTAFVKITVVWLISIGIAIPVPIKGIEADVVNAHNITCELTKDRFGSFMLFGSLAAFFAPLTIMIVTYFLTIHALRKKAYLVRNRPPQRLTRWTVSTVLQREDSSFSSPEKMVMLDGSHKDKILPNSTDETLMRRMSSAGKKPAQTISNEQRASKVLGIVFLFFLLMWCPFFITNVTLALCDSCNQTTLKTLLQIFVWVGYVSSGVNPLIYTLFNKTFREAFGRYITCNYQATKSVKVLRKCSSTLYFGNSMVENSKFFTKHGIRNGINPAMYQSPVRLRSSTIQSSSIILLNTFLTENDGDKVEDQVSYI

SMILES | IC50 [1] [µM] | ED50 [2] | nature of antagonism by harmine with respect to the product [3] | nature of antagonism with respect to serotonin [4] | antagonism of analgesic effect by Naloxone (conclusion) [5] | LD50 at 48 h [6] | affinity parameter (pA2) with respect to histamine [7] | nature of antagonism with respect to histamine [7] | ED30 [8] [mg/kg] | DE30 (30% increase in licking time) [8] [micro-moles per kg] | affinity parameter (pD2) as agonist [9] | Kb [4] [µM]
c1ccc(CN2CCN(c3coc4ccccc34)CC2)cc1 [1-(3'-benzofuryl)-4-benzylpiperazine] | > 300 | 22 µmol/kg and 6.5 mg/kg | competitive antagonism | non-competitive antagonist | antagonized by Naloxone | 5500 µmol/kg and 1600 mg/kg | 5.99 | competitive antagonist | 20 | 70 | 7.0 | –
CC(=O)n1cc(N2CCN(Cc3ccccc3)CC2)c2ccccc21 [known compound, 1-acetyl-3-benzylpiperazino-indole] | 103 | 55 µmol/kg and 18 mg/kg | non-competitive antagonism | competitive antagonist | not antagonized | 3000 µmol/kg and 1000 mg/kg | – | non-competitive antagonist | 13 | 40 | 5.4 | 4.57
